We go through six molecules from patent US12036270B2, “Method for immunomodulation of using aza-podophyllotoxin derivatives” (Sistema Universitario Ana G. Mendez, priority 2015, dated 2024).

Values joined by “and” are separate entries in the source; they are usually repeats but may differ in a detail not shown here. Identical values can stand only once.

The test system of the assay is mouse splenocytes. The assay can be described thus: in vitro stimulation of mouse splenocytes/lymphocytes, cytokine release measured in supernatant by protein microarray chip. The assay is classed as cell-based. Conditions: for IL-6 produced: Example 1 and b94-b99; for cytokine milieu (TH1/TH2/TH17 bias): profile of AP-treated mouse splenocytes; for GCSF levels: Example 2 and b94-b99. The procedure:
A total of 2×10^5 mouse splenocytes per well were cultured in a humidified atmosphere at 37° C. and 5% CO2 in round-bottomed 96-well culture plates for five days with the AP compounds […]. Concanavalin A ([…]) and culture media were used as positive and negative controls, respectively. Plates were centrifuged at 1,200 RPM for five minutes, and supernatants were collected. The resulting cytokine profile produced after lymphocyte stimulation was analyzed using a fluorescently-labeled protein microarray chip as indicated by the manufacturer (RayBiotech, Norcross, Ga., USA).
The immunomodulatory effect of the AP compounds was assessed by in vitro stimulation of mouse lymphocytes for five days.

[1] abbreviates: mouse splenocytes, five days, listed as AP-312.
Setting [2] is: mouse splenocytes, five days, listed as AP-102.
Where [3] appears, read: mouse splenocytes, five days, listed as AP-103.
[4] abbreviates: mouse splenocytes, five days, listed as AP-311.

As to `COc1cccc(C2C3=C(COC3=O)N(CCO)c3cc4c(cc32)OCCO4)c1OC` (stereo not drawn) [AP312], the “cytokine milieu (TH1/TH2/TH17 bias)” value is “strong TH2 cytokine milieu, followed by a TH17, and a smaller TH1 cytokine profile”. Besides, under “mouse splenocytes, five days”, the IL-1b induced stood at 11.89 pg/mL, the “IL-12 (IL-12p70) induced” value is given as 13 pg/mL, the IL-6 produced is on record as 270 pg/mL and the “IL-6 induced (summary / preliminary data)” value is listed as 810 pg/mL. Under setting [1], the IL-6 produced is on record as 269.89 pg/mL and the “IL-12 (IL-12p70) induced” value turned out to be 27.89 pg/mL.

`O=C1OCC2=C1C(c1ccccc1)c1cc3c(cc1N2CCO)OCO3` (stereo not drawn) [AP104]: the “cytokine milieu (TH1/TH2/TH17 bias)” value is “high TH2-type cytokines, but equally comparably low TH1 and TH2”. For the same molecule, for the setting “mouse splenocytes, five days”, the IFN-gamma induced amounted to 104.58 pg/mL; the “IL-2p70 induced (so in the source)” value is 21.99 pg/mL; the IL-10 induced is 14 pg/mL and 13.78 pg/mL; the “IL-12 (IL-12p70) induced” value is 22 pg/mL. Further, where the note is “mouse splenocytes, five days”, the IL-23 induced was 58 pg/mL and 58.48 pg/mL; the IL-6 produced is 261 pg/mL and 260.85 pg/mL; the GCSF levels was 690 pg/mL and 690.39 pg/mL; the “G-CSF induced (summary / preliminary data)” value is given as 2071 pg/mL. Besides, the “IL-6 induced (summary / preliminary data)” value (mouse splenocytes, five days) is on record as 782 pg/mL.

With `COc1ccc(C2C3=C(COC3=O)N(CCO)c3cc4c(cc32)OCO4)cc1OC` (stereo not drawn) [AP102], the “cytokine milieu (TH1/TH2/TH17 bias)” value is “highest TH17 cytokine biased, followed by a close TH2 biased and a smaller TH1 cytokine milieu”. Further, under “mouse splenocytes, five days”, the IL-2 induced was 17 pg/mL, the “IL-12 (IL-12p70) induced” value is 29 pg/mL, the IL-17 induced was found to be 294 pg/mL and the IL-6 produced stood at 257 pg/mL. For the same molecule, under “mouse splenocytes, five days”, the GCSF levels is given as 736 pg/mL, the “G-CSF induced (summary / preliminary data)” value came to 2208 pg/mL and the “IL-6 induced (summary / preliminary data)” value worked out at 772 pg/mL. Moreover, under setting [2], the IL-6 produced was 257.35 pg/mL, the GCSF levels stood at 735.83 pg/mL, the IL-2 induced was found to be 17.36 pg/mL and the “IL-12 (IL-12p70) induced” value stood at 29.09 pg/mL.

Turning to `COc1cc(C2C3=C(COC3=O)N(CCO)c3cc4c(cc32)CCC4)cc(OC)c1O` (stereo not drawn) [AP205], the “cytokine milieu (TH1/TH2/TH17 bias)” value is “high TH2-type cytokines, but equally comparably low TH1 and TH2”. Besides, for the setting “mouse splenocytes, five days”, the IL-1a induced is 20 pg/mL and 20.29 pg/mL; the IL-1b induced amounted to 19.45 pg/mL; the IL-9 induced was 30 pg/mL and 30.45 pg/mL; the “IL-12 (IL-12p70) induced” value is 60 pg/mL and 60.14 pg/mL. Further, under “mouse splenocytes, five days”, the IL-15 induced is 94 pg/mL and 94.04 pg/mL; the IL-23 induced is 80 pg/mL and 79.96 pg/mL; the IL-6 produced is 1445 pg/mL and 1444.71 pg/mL; the GCSF levels was 2336 pg/mL and 2336.49 pg/mL. Besides, under “mouse splenocytes, five days”, the “G-CSF induced (summary / preliminary data)” value is listed as 7166 pg/mL and the “IL-6 induced (summary / preliminary data)” value was found to be 4351 pg/mL.

With `COc1cccc(C2C3=C(COC3=O)N(CCO)c3cc4c(cc32)OCO4)c1` (stereo not drawn) [AP103], the “cytokine milieu (TH1/TH2/TH17 bias)” value was “high TH2-type cytokines, but equally comparably low TH1 and TH2”. Also, for the setting “mouse splenocytes, five days”, the IL-1b induced stood at 3.95 pg/mL, the “IL-12 (IL-12p70) induced” value is reported as 21 pg/mL, the IL-6 produced worked out at 375 pg/mL and the GCSF levels was found to be 858 pg/mL. Where the note is “mouse splenocytes, five days”, the “G-CSF induced (summary / preliminary data)” value is 2575 pg/mL and the “IL-6 induced (summary / preliminary data)” value is recorded as 1125 pg/mL. Under setting [3], the IL-6 produced was determined as 535.06 pg/mL, the GCSF levels was 858.15 pg/mL and the “IL-12 (IL-12p70) induced” value was found to be 35.70 pg/mL.

In the case of `COc1ccc(C2C3=C(COC3=O)N(CCO)c3cc4c(cc32)OCCO4)c(OC)c1OC` (stereo not drawn) [AP311], the “cytokine milieu (TH1/TH2/TH17 bias)” value was “strong TH2 cytokine milieu, followed by a TH17, and a smaller TH1 cytokine profile”. Also, under “mouse splenocytes, five days”, the IL-15 induced stood at 56 pg/mL, the IL-23 induced was 27 pg/mL, the IL-6 produced turned out to be 184 pg/mL and the “IL-6 induced (summary / preliminary data)” value stood at 551 pg/mL. Under setting [4], this molecule returned an IL-6 produced of 183.76 pg/mL and an IL-23 induced of 26.66 pg/mL.
